This note sets out measurements from patent US20170045513A1, “METHODS OF DIAGNOSING CELIAC DISEASE USING IP-10” (ImmusanT, Inc., priority 2014, published 2017).

For the experiment, the system named is gluten-reactive T cells. The experiment can be described thus: Overnight IFNγ ELISpot assay with fresh PBMC. The format is cell-based, human. The following applies: for Percent of maximal response to individual gluten peptides, ELISp: after oral gluten challenge; for IFNγ ELISpot % max Mean: n = 5, blood after oral gluten challenge, individual peptides 5 μM (Peptide 2* of P14, Pepscan: 10 μg/mL (5.45 μM)). As to the method: HLA-DQ2.5-positive celiac disease subjects on gluten-free diet were used in this study. Blood was collected immediately before and 6 days after commencing 3-day oral gluten challenge. Whole blood or PBMCs were incubated with pools or single peptides derived from gluten or recall antigens. IFNγ and IP-10 levels were measured in plasma from the whole blood that was incubated in 96-well plates with peptides or peptide pools. Plasma cytokine/chemokine levels were measured by MAGPIX® multiplex bead assay (IFNγ and IP-10) or by ELISA (IFNγ and IP-10), and PBMC separated from the same blood sample were incubated in overnight IFNγ ELISpot assays.
Overnight IFNγ ELISpot assays (Human IFN-γ ELISpotPRO kit, transparent, ALP; Mabtech AB, #3420-2APT-10) were performed using PBMC freshly separated from heparinized blood diluted 1:1 in PBS with 2% fetal bovine serum (Stemcell Technologies #07905; Vancouver, BC, V5Z 1B3, Canada) overlaid on density gradient medium (Ficoll-Paque™ PLUS; GE Healthcare Lice Sciences #:17-1440-02) in SepMate™-50 tubes (Stemcell Technologies #15460). PBMC (8 million/mL) were resuspended in serum-free medium with gentamicin and phenol red (X-VIVO™15; Lonza, Walkersville Mass. 21793). PBMC (0.4 million/50 pt/well) and incubated with 50 μL 80% X-vivo15, 0.2% DMSO and 20% PBS in three triplicate wells (“medium only”), or with 50 μL PHA-L 20 μg/ml or peptide at 2× final concentration in 80% X-vivo15, 0.2% DMSO and 20% PBS. Peptide solutions to be added to individual ELISpot wells were prepared in 96-well U-bottom plates (60 pt/well) that were then sealed with adhesive ELISA plate cover slips before replacing the plastic lid and being frozen at −80° C. 96-well plates containing peptide solutions were thawed at room temperature for 10 min while being centrifuged at 300 g immediately prior to being added to ELISpot wells. Peptide pools and mitogen were assessed in triplicate wells, and individual peptides were assessed in duplicate wells. X-VIVO™15 (50 μL) was incubated with 80% X-vivo15, 0.2% DMSO and 20% PBS (50 μL) in triplicate wells (“no PBMC” control). A Zeiss automated ELISpot counter was used to determine spot forming units (SFU) per well (Zellnet Inc., Fort Lee, N J 07024). Laboratory staff were unaware of the arrangement of peptide solutions in ELISpot wells during assay setup and plate counting.

Non-standard residues stand in square brackets, D forms with d. pGlu = O=C1CC[C@@H](C(=O)O)N1

Consider “(pE)QPFPQPELPYPYPQ-amide ([pGlu]QPFPQPELPYPYPQ-NH2; SMILES CC(C)C[C@H](NC(=O)[C@H](CCC(=O)O)NC(=O)[C@@H]1CCCN1C(=O)[C@H](CCC(N)=O)NC(=O)[C@@H]1CCCN1C(=O)[C@H](Cc1ccccc1)NC(=O)[C@@H]1CCCN1C(=O)[C@H](CCC(N)=O)NC(=O)[C@@H]1CCC(=O)N1)C(=O)N1CCC[C@H]1C(=O)N[C@@H](Cc1ccc(O)cc1)C(=O)N1CCC[C@H]1C(=O)N[C@@H](Cc1ccc(O)cc1)C(=O)N1CCC[C@H]1C(=O)N[C@@H](CCC(N)=O)C(N)=O) [Peptide 16]”, for which the “IFNγ ELISpot % max Mean” value is recorded as 24 % max. Besides, for the setting “Subject 3, Max. 18 SFU”, the “Percent of maximal response to individual gluten peptides, ELISp” value (from here on “Percent of maximal response”) is 22 % of max. Besides, the “Percent of maximal response” value (Subject 4, Max. 36 SFU) is 31 % of max. Further, the “Percent of maximal response” value (Subject 6, Max. 16 SFU) is 19 % of max. For the same substance, the “Percent of maximal response” value (Subject 8, Max. 17 SFU) is 24 % of max. Further, the “Percent of maximal response” value (Subject 10, Max. 11 SFU) is reported as 27 % of max.
For “(pE)QPFPQPEQPTPIQPEQP-amide ([pGlu]QPFPQPEQPTPIQPEQP-NH2; SMILES CC[C@H](C)[C@H](NC(=O)[C@@H]1CCCN1C(=O)[C@@H](NC(=O)[C@@H]1CCCN1C(=O)[C@H](CCC(N)=O)NC(=O)[C@H](CCC(=O)O)NC(=O)[C@@H]1CCCN1C(=O)[C@H](CCC(N)=O)NC(=O)[C@@H]1CCCN1C(=O)[C@H](Cc1ccccc1)NC(=O)[C@@H]1CCCN1C(=O)[C@H](CCC(N)=O)NC(=O)[C@@H]1CCC(=O)N1)[C@@H](C)O)C(=O)N[C@@H](CCC(N)=O)C(=O)N1CCC[C@H]1C(=O)N[C@@H](CCC(=O)O)C(=O)N[C@@H](CCC(N)=O)C(=O)N1CCC[C@H]1C(N)=O) [Peptide 5]”, the “IFNγ ELISpot % max Mean” value was 22 % max. Also, the “Percent of maximal response” value (Subject 3, Max. 18 SFU) is reported as 17 % of max. The “Percent of maximal response” value (Subject 4, Max. 36 SFU) is 19 % of max. For the same substance, the “Percent of maximal response” value (Subject 6, Max. 16 SFU) is listed as 0 % of max. In addition, the “Percent of maximal response” value (Subject 8, Max. 17 SFU) was 18 % of max. The “Percent of maximal response” value (Subject 10, Max. 11 SFU) is on record as 55 % of max.
With “(pE)PEQPEQPFPEQPQQ-amide ([pGlu]PEQPEQPFPEQPQQ-NH2; SMILES NC(=O)CC[C@H](NC(=O)[C@H](CCC(N)=O)NC(=O)[C@@H]1CCCN1C(=O)[C@H](CCC(N)=O)NC(=O)[C@H](CCC(=O)O)NC(=O)[C@@H]1CCCN1C(=O)[C@H](Cc1ccccc1)NC(=O)[C@@H]1CCCN1C(=O)[C@H](CCC(N)=O)NC(=O)[C@H](CCC(=O)O)NC(=O)[C@@H]1CCCN1C(=O)[C@H](CCC(N)=O)NC(=O)[C@H](CCC(=O)O)NC(=O)[C@@H]1CCCN1C(=O)[C@@H]1CCC(=O)N1)C(N)=O) [Peptide 11]”, the “IFNγ ELISpot % max Mean” value is 3 % max. Further, the “Percent of maximal response” value (Subject 3, Max. 18 SFU) is on record as 0 % of max. The “Percent of maximal response” value (Subject 4, Max. 36 SFU) is 3 % of max. The “Percent of maximal response” value (Subject 6, Max. 16 SFU) is given as 6 % of max. Also, the “Percent of maximal response” value (Subject 8, Max. 17 SFU) is given as 6 % of max. For the same substance, the “Percent of maximal response” value (Subject 10, Max. 11 SFU) is recorded as 0 % of max.
In the case of “(pE)QPPFSEQEQPVLPQ-amide (N-terminal pyroglutamate; C-terminal amide) [Peptide 13]”, the “IFNγ ELISpot % max Mean” value was 2 % max. In addition, the “Percent of maximal response” value (Subject 3, Max. 18 SFU) was 6 % of max. The “Percent of maximal response” value (Subject 4, Max. 36 SFU) was 6 % of max. In addition, where the note is “Subject 6, Max. 16 SFU”, the “Percent of maximal response” value is recorded as 0 % of max. Further, under “Subject 8, Max. 17 SFU”, the “Percent of maximal response” value was 0 % of max. Where the note is “Subject 10, Max. 11 SFU”, the “Percent of maximal response” value is reported as 0 % of max.
Take “(pE)SGEGSFQPSQENPQ-amide ([pGlu]SGEGSFQPSQENPQ-NH2; SMILES NC(=O)CC[C@H](NC(=O)[C@@H]1CCCN1C(=O)[C@H](CC(N)=O)NC(=O)[C@H](CCC(=O)O)NC(=O)[C@H](CCC(N)=O)NC(=O)[C@H](CO)NC(=O)[C@@H]1CCCN1C(=O)[C@H](CCC(N)=O)NC(=O)[C@H](Cc1ccccc1)NC(=O)[C@H](CO)NC(=O)CNC(=O)[C@H](CCC(=O)O)NC(=O)CNC(=O)[C@H](CO)NC(=O)[C@@H]1CCC(=O)N1)C(N)=O) [Peptide 9]”: the “IFNγ ELISpot % max Mean” value is 1 % max. Besides, the “Percent of maximal response” value (Subject 3, Max. 18 SFU) is 0 % of max. The “Percent of maximal response” value (Subject 4, Max. 36 SFU) is on record as 0 % of max. In addition, the “Percent of maximal response” value (Subject 6, Max. 16 SFU) is on record as 0 % of max. Further, under “Subject 8, Max. 17 SFU”, the “Percent of maximal response” value is reported as 6 % of max. Besides, the “Percent of maximal response” value (Subject 10, Max. 11 SFU) is 0 % of max.
Take “(pE)LQPFPQPELPYPQPQ-amide ([pGlu]LQPFPQPELPYPQPQ-NH2; SMILES CC(C)C[C@H](NC(=O)[C@@H]1CCC(=O)N1)C(=O)N[C@@H](CCC(N)=O)C(=O)N1CCC[C@H]1C(=O)N[C@@H](Cc1ccccc1)C(=O)N1CCC[C@H]1C(=O)N[C@@H](CCC(N)=O)C(=O)N1CCC[C@H]1C(=O)N[C@@H](CCC(=O)O)C(=O)N[C@@H](CC(C)C)C(=O)N1CCC[C@H]1C(=O)N[C@@H](Cc1ccc(O)cc1)C(=O)N1CCC[C@H]1C(=O)N[C@@H](CCC(N)=O)C(=O)N1CCC[C@H]1C(=O)N[C@@H](CCC(N)=O)C(N)=O) [Peptide 1]”: the “IFNγ ELISpot % max Mean” value came out at 13 % max. Further, the “Percent of maximal response” value (Subject 3, Max. 18 SFU) is given as 11 % of max. Moreover, the “Percent of maximal response” value (Subject 4, Max. 36 SFU) is recorded as 22 % of max. For the same substance, the “Percent of maximal response” value (Subject 6, Max. 16 SFU) was 25 % of max. For the setting “Subject 8, Max. 17 SFU”, the “Percent of maximal response” value was 0 % of max. Besides, the “Percent of maximal response” value (Subject 10, Max. 11 SFU) is 9 % of max.
Regarding “(pE)PQPYPEQPQPFPQQ-amide ([pGlu]PQPYPEQPQPFPQQ-NH2; SMILES NC(=O)CC[C@H](NC(=O)[C@H](CCC(N)=O)NC(=O)[C@@H]1CCCN1C(=O)[C@H](Cc1ccccc1)NC(=O)[C@@H]1CCCN1C(=O)[C@H](CCC(N)=O)NC(=O)[C@@H]1CCCN1C(=O)[C@H](CCC(N)=O)NC(=O)[C@H](CCC(=O)O)NC(=O)[C@@H]1CCCN1C(=O)[C@H](Cc1ccc(O)cc1)NC(=O)[C@@H]1CCCN1C(=O)[C@H](CCC(N)=O)NC(=O)[C@@H]1CCCN1C(=O)[C@@H]1CCC(=O)N1)C(N)=O) [Peptide 8]”, the “IFNγ ELISpot % max Mean” value is 37 % max. Moreover, the “Percent of maximal response” value (Subject 3, Max. 18 SFU) was 44 % of max. For the setting “Subject 4, Max. 36 SFU”, the “Percent of maximal response” value is recorded as 64 % of max. Besides, the “Percent of maximal response” value (Subject 6, Max. 16 SFU) is 31 % of max. For the setting “Subject 8, Max. 17 SFU”, the “Percent of maximal response” value is listed as 18 % of max. Moreover, the “Percent of maximal response” value (Subject 10, Max. 11 SFU) was 27 % of max.
Consider “(pE)PEQPFPEQPIPEQPQPYP-amide ([pGlu]PEQPFPEQPIPEQPQPYP-NH2; SMILES CC[C@H](C)[C@H](NC(=O)[C@@H]1CCCN1C(=O)[C@H](CCC(N)=O)NC(=O)[C@H](CCC(=O)O)NC(=O)[C@@H]1CCCN1C(=O)[C@H](Cc1ccccc1)NC(=O)[C@@H]1CCCN1C(=O)[C@H](CCC(N)=O)NC(=O)[C@H](CCC(=O)O)NC(=O)[C@@H]1CCCN1C(=O)[C@@H]1CCC(=O)N1)C(=O)N1CCC[C@H]1C(=O)N[C@@H](CCC(=O)O)C(=O)N[C@@H](CCC(N)=O)C(=O)N1CCC[C@H]1C(=O)N[C@@H](CCC(N)=O)C(=O)N1CCC[C@H]1C(=O)N[C@@H](Cc1ccc(O)cc1)C(=O)N1CCC[C@H]1C(N)=O) [Peptide 14]”, for which the “IFNγ ELISpot % max Mean” value was determined as 100 % max. For the same substance, for the setting “Subject 3, Max. 18 SFU”, the “Percent of maximal response” value is 100 % of max. For the same substance, the “Percent of maximal response” value (Subject 4, Max. 36 SFU) is 100 % of max. In addition, where the note is “Subject 6, Max. 16 SFU”, the “Percent of maximal response” value is listed as 100 % of max. Also, the “Percent of maximal response” value (Subject 8, Max. 17 SFU) is 100 % of max. For the same substance, for the setting “Subject 10, Max. 11 SFU”, the “Percent of maximal response” value was 100 % of max.
